These results are taken from patent publication US9439878B2, “Use of lumefantrine and related compounds in the treatment of cancer” (priority 2010, dated 2016).

The test system of assay [1] is Ba/F3 cells expressing wild-type BCR-ABL (p210). The experiment in a line: MTT cell viability assay, Ba/F3 cells expressing wild-type (p210) Bcr-Abl. To be noted: for potency relative to chloroquine (cell viability): chloroquine 25 μM control. It is filed as cell-based, Murine. The source says: (§1) A study conducted through the independent Cancer Therapy & Research Center, Institute for Drug Development at the University of Texas Health Science Center at San Antonio, Tex., evaluated lumefantrine as an autophagy inhibitor (i.e., “Lumefantrine Study”). […] 1; 110(1):313-22. Epub 2007 Mar. 15. PMID: 17363733”. Murine Ba/F3 cells that stably express wild-type BCR-ABL (p210) or the T315I mutated version of BCR-ABL, which confers resistance to imatinib and nilotinib were utilized for this study. Cells were propagated at 37° C. in a humidified atmosphere containing 5% carbon dioxide. Cell viability was determined using the MTT assay. This colorimetric procedure measures conversion of the MTT reagent (a tetrazoleum salt) to formazan by mitochondria. Formazan production was quantified by spectrophotometric measurement at 570 nm and was proportional to viable cell number. Cells were cultured and treated with different concentrations of the agent(s) for 48 hours. Following treatment, 50 μl of MTT was added to each well and allowed to incubate for 1-3 hours at 37° C. Each well was aspirated and 200 μl of DMSO was added to each well to dissolve the formazan. […] Lumefantrine was tested as potential autophagy inhibitor at final concentrations between one to forty micromolar. […] The ER stressor drugs tested and their final concentrations were GleevecTM (imatinib, Novartis, final 350 nM), […] (nilotinib, Novartis, final 35 nM) or ZolinzaTM (suberoylanilide hydroxamic acid, Merck, final 1 μM).
(In general: Formazan colour is commonly taken as a measure of viable cells.)

In assay [2] the test system is Ba/F3 cells expressing T315I mutated BCR-ABL. The experiment in a line: MTT cell viability assay, Ba/F3 cells expressing mutant Bcr-Abl (T315I). To be noted: for potency relative to chloroquine (cell viability): chloroquine 25 μM control. It is filed as cell-based, Murine.
Excerpt: as §1

With `CCCCN(CCCC)CC(O)c1cc(Cl)cc2c1-c1ccc(Cl)cc1/C2=C\c1ccc(Cl)cc1` (racemic) [lumefantrine, 2-(dibutylamino)-1-[(9E)-2,7-dichloro-9-(4-chlorobenzylidene)-9H-fluoren-4-yl]ethanol], the “potency relative to chloroquine (cell viability)” value in assay [1] (SAHA experiment, Ba/F3 p210) is reported as “equipotent with chloroquine”; in assay [1] (imatinib experiment, Ba/F3 p210), “equipotent with chloroquine”; in assay [1] (nilotinib experiment, Ba/F3 p210) it was “equipotent with chloroquine”; in assay [2] (SAHA experiment, Ba/F3 T315I), “equipotent with chloroquine”; in assay [2] (imatinib experiment, Ba/F3 T315I) it was “equipotent with chloroquine”; in assay [2] (nilotinib experiment, Ba/F3 T315I), “equipotent with chloroquine”. Moreover, the “cell viability (MTT, OD 570 nm)” value in assay [1] (lumefantrine 1-40 micromolar, with and without SAHA 1 μM, 48 hours, Ba/F3 p210 (FIG. 2)) is “dose-dependent reductions in the cell viability”; in assay [2] (lumefantrine 1-40 micromolar, with and without SAHA 1 μM, 48 hours, Ba/F3 T315I (FIG. 3)) it was “dose-dependent reductions in the cell viability”. The “enhancement of suberoylanilide hydroxamic acid (SAHA) effect on proliferation/viability” value in assay [1] (with SAHA 1 μM, 48 hours, Ba/F3 p210) is on record as “enhanced the suberoylanilide hydroxamic acid drug response”; in assay [2] (with SAHA 1 μM, 48 hours, Ba/F3 T315I) it was “enhanced the suberoylanilide hydroxamic acid drug response”. The “augmentation of imatinib effects on cell viability” value in assay [1] (with imatinib 350 nM, 48 hours, Ba/F3 p210 (FIG. 4)) was “augments the imatinib effects”; in assay [2] (with imatinib 350 nM, 48 hours, Ba/F3 T315I (FIG. 5)), “the only effects on viability are those generated by lumefantrine alone”. Besides, the “augmentation of nolotinb effects on cell viability” value in assay [1] (with nilotinib 35 nM, 48 hours, Ba/F3 p210 (FIG. 6)) is “augments the nolotinb effects”; in assay [2] (with nilotinib 35 nM, 48 hours, Ba/F3 T315I (FIG. 7)), “the only effects on viability are those generated by lumefantrine alone”.
